Structures are written as SMILES.

The test has as its system rats with carbon tetrachloride-induced hepatic fibrosis. The test is described as follows: Saluresis and diuresis test: urine and electrolyte excretion in rats with carbon tetrachloride-induced hepatic fibrosis. Particulars: for Chloride excretion / Potassium excretion / Sodium excretion / Urine volume: 0.3 mg/kg s.c. at 0 and 6 h, mean value, n = 10, CCl4 fibrosis rats. Format: in vivo, Wistar rats. The protocol:
Wistar rats were used (breeder Hoechst AG, Kastengrund) with an initial body weight of 120-150 g.
Hepatic fibrosis was induced as described by Bickel et al., J. Hepatol., 13 (Suppl. 3) (1991) 26-33. The animals received carbon tetrachloride (CCl4) twice-weekly in a dose of 1 ml/kg orally for at least 6 weeks. The fibrosis of the liver was verified by means of the collagen content of the liver and liver-relevant serum parameters (bilirubin, ALAT, bile acids).
In the course of the fibrogenesis, the animals were kept under standard conditions as follows: day/night rhythm (light phase from 6.30 to 18.30), room temperature 22±2° C. and relative atmospheric humidity 60±10%. The animals received standardized rat feed (Altromin® 1321) and water ad libitum.
At the time of the diuresis test, the animals had reached weights of between 200 and 320 g. Food had already been withdrawn from the animals 16 h before the test and withheld during the entire test. The animals were additionally permitted free access to water up to the actual start of the test. For the duration of the diuresis test, the animals were kept in special diuresis cages. Controlled diuresis was induced with an oral dose of 20 ml of water per kg of body weight at time 0 h. The excretion of electrolytes and urine volumes were determined separately for each animal in the collection periods from […] and 6-24 h. Five days later, the test was carried out again on the same animals with administration of bradykinin antagonists. Animals received 0.3 mg/kg each of HOE 140 s.c. at time 0 and 6 h, dissolved in 5 ml of saline solution per kg of body weight.
Sodium and potassium were determined by flame photometry (Eppendorf flame photometer, Hamburg). Chloride was measured argentometrically by means of potentiometric end-point determination (Eppendorf chloride meter, Hamburg). The analytical results were used to calculate the urine excretion (ml/kg of body weight) and electrolyte excretion (mmol/kg of body weight).
The results are indicated as arithmetic means and standard deviation (SD). Statistical checking was carried out by the T test or, in the case of deviation from the normal distribution, by the nonparametric Mann-Whitney test.

Where the note is “collection period 1-5 h”, `NC(N)=NCCC[C@@H](N)C(=O)N[C@@H](CCCN=C(N)N)C(=O)N1CCC[C@H]1C(=O)N1C[C@H](O)C[C@H]1C(=O)NCC(=O)N[C@@H](Cc1cccs1)C(=O)N[C@@H](CO)C(=O)N1Cc2ccccc2C[C@@H]1C(=O)N1[C@H](C(=O)N[C@@H](CCCN=C(N)N)C(=O)O)C[C@@H]2CCCC[C@@H]21` [HOE 140, H-D-Arg-Arg-Pro-Hyp-Gly-Thi-Ser-D-Tic-Oic-Arg-OH] returned a Chloride excretion of 0.35 mmol/kg, a Potassium excretion of 0.51 mmol/kg, a Sodium excretion of 0.48 mmol/kg and a Urine volume of 26.59 mL/kg. For the setting “collection period 6-24 h”, this compound gave a Chloride excretion of 3.27 mmol/kg, a Potassium excretion of 2.10 mmol/kg, a Sodium excretion of 4.10 mmol/kg and a Urine volume of 31.03 mL/kg. In addition, under “rats with carbon tetrachloride-induced hepatic fibrosis, versus control run in the same animals”, the “Natriuresis / sodium excretion (result in words)” value was “marked, statistically significant natriuresis”.

(Values after patent publication US5863901A, “Use of bradykinin antagonists for the production of pharmaceuticals for the treatment of chronic fibrogenetic liver disorders and acute liver disorders” (Hoechst Aktiengesellschaft, priority 1996, dated 1999).)
